In brackets after ≈: the same amount, converted by molar mass.
Legend:
[1] = system: lipid peroxide radical production; assay: Lipid peroxide radical production inhibition test; type: cell-based, Staphylococcus aureus 3A; conditions: for Growth of bacteria: 37° C., 30 minutes
[2] = system: Bacillus subtilis IFO3021; assay: Antimicrobial activity test; type: cell-based; conditions: Bacterium 3, 24 hours
Experimental: (§1) The antimicrobial activities of DGE against Escherichia coli W3110 (Bacterium 1), Salmonella typhimurium LT2 (Bacterium 2), Bacillus subtilis IFO3021 (Bacterium 3), Pseudomonas aeruginosa IFO3080 (Bacterium 4) and Streptococcus mutans GS5 (Bacterium 5) were examined as follows.
(§2) The Bacteria 1 to 4 were cultured overnight in L-broth. The cultures were diluted to a concentration of about 2×10^5 cells/180 μl with Sensitive Bouillon medium (Nissui) base on the turbidity. The Bacterium 5 was cultured overnight in Brain Heart Infusion medium. The culture was diluted to a concentration of about 2×10^5 cells/180 μl with Brain Heart Infusion medium based on the turbidity. 180 μl of each bacterial dilution was placed in each well of a 96-well microtiter plate. On the other hand, the respective bacterial dilutions were further diluted and spread onto plates of L-broth or Brain Heart Infusion medium. The plates were incubated at 37° C. overnight. The resulting colonies were counted to determine the stating viable cell numbers.
(§3) A 14.4 mg/ml DGE solution was diluted every 2-folds to prepare serial dilutions. 20 μl each of the dilutions was placed in the well in which the bacterial dilution had been placed. The cells were cultured at 37° C. for 24 hours without shaking. After cultivation, the turbidity of each culture was measured.
(§4) Furthermore, the culture from the well for which the growth of bacterial cells was not observed was spread onto plates. After the plates were incubated at 37° C. overnight, the colony number was counted to determine the viable cell number. […] The minimal growth-inhibitory concentrations and the minimal bacteriocidal concentrations of DGE for the Bacteria 1 to 5 were determined as shown in Table 2.

Escherichia coli W3110 = assay: Antimicrobial activity test; type: cell-based; conditions: Bacterium 1, 24 hours
Experimental: as §1, §2, §3, §4

[3] = system: Pseudomonas aeruginosa IFO3080; assay: Antimicrobial activity test; type: cell-based; conditions: Bacterium 4, 24 hours
Experimental: as §1, §2, §3, §4

[4] = system: Salmonella typhimurium LT2; assay: Antimicrobial activity test; type: cell-based; conditions: Bacterium 2, 24 hours
Experimental: as §1, §2, §3, §4

Streptococcus mutans GS5 = assay: Antimicrobial activity test; type: cell-based; conditions: Bacterium 5, 24 hours
Experimental: as §1, §2, §3, §4

human FGF-β = assay: Cytokine production from DSEK cells (ELISA); type: cell-based; conditions: DSEK culture supernatant at 24 or 72 hours
Experimental: (§5) 150 μl/well of culture supernatant was recovered from the DSEK cell culture at 24 or 72 hours. The effects of DGE on the production (expression) of cytokines (human TGF-β, human FGF-β, human IL-1α and human IL-10) from the cell were determined using ELISA kits specific for the respective cytokines (from Intergen for human FGF-β and human IL-10; and from Promega for human IL-1α and human TGF-β).

human IL-10 = assay: Cytokine production from DSEK cells (ELISA); type: cell-based; conditions: DSEK culture supernatant at 24 or 72 hours
Experimental: as §5

human IL-1α = assay: Cytokine production from DSEK cells (ELISA); type: cell-based; conditions: DSEK culture supernatant at 24 or 72 hours
Experimental: as §5

human TGF-β = assay: Cytokine production from DSEK cells (ELISA); type: cell-based; conditions: DSEK culture supernatant at 24 or 72 hours
Experimental: as §5

[5] = system: prostaglandin E2 production induced by LPS in RAW264.7 cells; assay: Prostaglandin E2 production inhibition test; type: cell-based
Experimental: RAW264.7 cells were suspended in Dulbecco's modified Eagle's medium containing 10% fetal bovine serum at a concentration of 3×10^5 cells/ml. 500 μl of the suspension was added to each well of a 48-well microtiter plate and the plate was incubated at 37° C. for 6 hours in the presence of 5% CO2. 10 μl of an aqueous solution prepared by dissolving DGE at a concentration of 0.5 mM in water and sterilizing it by filtration was added to the well. The plate was incubated for additional 0.5 or 5 hours. 10 μl of 50 μg/ml aqueous LPS solution was then added to the well. After the plate was incubated for additional 12 hours, the amount of prostaglandin E2 was measured. As control groups, a group to which LPS was not added and a group to which DGE was not added were provided.
After cultivation, the amount of prostaglandin E2 in the culture supernatant was measured using Prostaglandin E2 ELISA Kit (Neogen, Code. 404110). All of the measurements were carried out in triplicate.
RAW264.7 cells were suspended in Dulbecco's modified Eagle's medium without phenol red containing 10% fetal bovine serum and 2 mM L-glutamine at a concentration of 3×10^5 cells/ml. 500 μl of the suspension was added to each well of a 48-well microtiter plate and the plate was incubated at 37° C. for 12 hours in the presence of 5% CO2. 10 μl of 50 μg/ml aqueous lipoplysaccharide solution and 10 μl of an aqueous solution prepared by dissolving DGE-GSH prepared in Example 13-(1) at a concentration of 1 mM in water and sterilizing it by filtration were then added to the well. After the plate was incubated for additional 16 hours, the amount of prostaglandin E2 was measured. As control groups, a group to which LPS was not added and a group to which DGE-GSH was not added were provided.
After cultivation, the amount of prostaglandin E2 in the culture supernatant was measured using Prostaglandin E2 ELISA Kit (Neogen, Code. 404110).

For O=C1C=CC(CO)OC1O [DGE, L-glycero-1,5-epoxy-1αβ,6-dihydroxy-cis-hex-3-en-2-one], the “activity of inhibiting lipid peroxide radical production” value [1] was “exhibited an activity of inhibiting lipid peroxide radical production”, the Growth of bacteria ([1]; DGE 1 mM in the reaction mixture with tert-butyl hydroperoxide) was “−” and the Growth of bacteria ([1]; DGE 10 mN in the reaction mixture with tert-butyl hydroperoxide) was “+”. The MIC ([2]; Bacillus subtilis, IFO3021, read-out: Minimal growth-inhibitory concentration) was 360 mg/L (≈ 2500 µM), the Minimal bacteriocidal concentration [2] was 720 µg/mL and the Minimal bacteriocidal concentration (Escherichia coli W3110) was 720 µg/mL. It also gave an MIC (Escherichia coli W3110; Escherichia coli, W3110, read-out: Minimal growth-inhibitory concentration) of 360 mg/L (≈ 2500 µM), a Minimal bacteriocidal concentration [3] of 720 µg/mL and an MIC ([3]; Pseudomonas aeruginosa, IFO3080, read-out: Minimal growth-inhibitory concentration) of 360 mg/L (≈ 2500 µM). The Minimal bacteriocidal concentration [4] was 720 µg/mL, the MIC ([4]; Salmonella enterica, TYPHIMURIUM, read-out: Minimal growth-inhibitory concentration) was 360 mg/L (≈ 2500 µM) and the Minimal bacteriocidal concentration (Streptococcus mutans GS5) was 180 µg/mL. The MIC (Streptococcus mutans GS5; Streptococcus mutans, GS5, read-out: Minimal growth-inhibitory concentration) was 90 mg/L (≈ 624 µM), the “production of human FGF-β” value (human FGF-β) was “inhibiting the production” and the “production of human IL-10” value (human IL-10) was “enhancing the production”. The “production of human IL-1α” value (human IL-1α) was “inhibiting the production”, the “production of human TGF-β” value (human TGF-β) was “enhancing the production” and the “inhibition of prostaglandin E2 production, 5 hours pre-incubation with DGE compared with 0.5 hour” value ([5]; DGE added before LPS) was “stronger inhibition of prostaglandin E2 production”. The “inhibition of prostaglandin E2 production induced by LPS” value ([5]; ELISA) was “inhibited the prostaglandin E2 production induced by LPS”.
“5-L-glutathion-S-yl-2-hydroxy-3,7-dioxabicyclo[2.2.2]octan-1-ol [DGE-GSH]” was tested, and the “prostaglandin E2 concentration in the medium” value ([5]; LPS, 10 μl of 1 mM DGE-GSH per 500 μl well, 16 hours, control 63.4 ng/ml, no addition 50.3 ng/ml) was 50.7 ng/mL.
